From BindingDB's records for PubMed 36846363 (Al-Ahliyya Amman University, 2023) come the findings set out here.

Molecules are shown by their SMILES.

The experiment in a line: Antagonist activity at P2Y12 receptor in human blood platelets assessed as inhibition of ADP-induced platelet aggregation compound preincubated with blood for 5 mins prior to ADP addition by electrode aggregometry assay.
For orientation: IC50 means the point on the concentration scale where inhibition reaches its midpoint. As for `CCOC(=O)c1cc(NC(=O)c2cc(NC(=O)c3cc(NC(=O)c4c(-c5ccccc5)noc4C)cn3C)cn2C)cn1C`, the IC50 is 4.2 µM. To `O=C(CCCCCCCC(=O)Nc1ccc2[nH]c3ccccc3c(=O)c2c1)Nc1ccc2[nH]c3ccccc3c(=O)c2c1` belongs 35 µM; to `O=C(CCC(=O)Nc1ccc2[nH]c3ccccc3c(=O)c2c1)Nc1ccc2[nH]c3ccccc3c(=O)c2c1`, 6.49 µM.
